Laboratory results reported in patent publication US7858349B2, “Anti-cancer compounds” (The Regents of the University of Colorado, priority 1999, dated 2010).

Tests used:
SCLC strain SHP-77 = test: MTT assay for cell survival, SCLC SHP-77 in vitro; format: cell-based, human; settings: ED50 for killing of SCLC strain SHP-77 in vitro, 4 days, 0 = no detectable activity, read-out: SCLC SHP-77 IC50
PC3 PC cells = test: Inhibition of PC3 tumor growth in vivo in nude mice; set-up: species or system athymic nude mice; key to PC3 In vivo % inhib.: an IC50 value of “0” represents no detectable anti-cancer activity for a drug in a given cell line; “Stim.” indicates the observation of a stimulatory activity on the growth of the cancer cell line; settings: percent inhibition of tumor growth in nude mice; prostate cancer; i.p. 5 mg/kg/every second day or 10 mg/kg/every fourth day
Method: Compounds having high in vitro cytotoxic activity were tested against implanted tumors in vivo. Athymic nude mice were implanted subcutaneously with suspensions (2 million SHP-77 SCLC cells, 1 million A549 NSCLC cells or 1.5 million PC3 PC cells) in Matrigel suspension. On the eighth day after tumor implantation groups of 5 mice bearing implants were injected intraperitoneally with the compounds being tested at 5 mg/kg/every second day or at 10 mg/kg/every fourth day; control animals were injected with an equal volume of isotonic saline. Less soluble compounds were initially dissolved in dimethyl sulfoxide (DMSO) and diluted with medium. In those cases the control injections contained the same concentration of DMSO. Tumor size was measured with a caliper three times per week. Tumor volume was calculated by the formula: Volume(cc)=3.14×(length)×(width)^2/6 At autopsy tumors were removed and weighed. Tumor inhibition was calculated on both weight and measurement basis. In each Table, an IC50 value of “0” represents no detectable anti-cancer activity for a drug in a given cell line and “Stim.” indicates the observation of a stimulatory activity on the growth of the cancer cell line.

Row | SMILES | IC50 (SCLC strain SHP-77) [µM] | PC3 In vivo % inhib. (PC3 PC cells)
1 | CC1(C)CC(NC(=O)[C@H](Cc2ccc(C#N)cc2)NC(=O)C(C)(c2ccccc2)c2ccccc2)CC(C)(C)N1 [Analog M-1512, 22Dp-PCNF-Atmp] | 22 | 48%
2 | COc1ccc2c(c1)c(CC(=O)NC(C(=O)NC1CC(C)(C)NC(C)(C)C1)C(C)(C)SCc1ccc(C)cc1)c(C)n2C(=O)c1ccc(Cl)cc1 (stereo not shown) [Analog M-1518, Indo-Pen(Mbzl)-Atmp] | 6 | Stim.
3 | COc1ccc2c(c1)c(CC(=O)N[C@@H](Cc1ccc(C#N)cc1)C(=O)NC1CC(C)(C)NC(C)(C)C1)c(C)n2C(=O)c1ccc(Cl)cc1 [Analog M-1520, Indo-PCNF-Atmp] | 13 | Stim.
4 | Cc1ccc(CSC(C)(C)C(NC(=O)c2cnccn2)C(=O)NC2CC(C)(C)NC(C)(C)C2)cc1 (stereo not shown) [Analog M-1522, 2Pyz-Pen(Mbzl)-Atmp] | 31 | Stim.
5 | CC1(C)CC(NC(=O)C(Cc2ccc(OCc3c(Cl)cccc3Cl)cc2)NS(=O)(=O)c2ccc(OC(F)(F)F)cc2)CC(C)(C)N1 (stereo not shown) [Analog M-1536, 4Tmbs-OC2Y-Atmp] | 3.2 | Stim.
6 | CC1(C)CC(NC(=O)C(Cc2ccc(OCc3c(Cl)cccc3Cl)cc2)NC(=O)c2ccc(OC(F)(F)F)cc2)CC(C)(C)N1 (stereo not shown) [Analog M-1538, 4Tfmb-OC2Y-Atmp] | 1.8 | Stim.
7 | CC1(C)CC(NC(=O)C(Cc2ccc(OCc3c(Cl)cccc3Cl)cc2)NC(=O)c2ccc(-c3ccccc3)cc2)CC(C)(C)N1 (stereo not shown) [Analog M-1542, 4Bpc-OC2Y-Atmp] | 6.4 | Stim.
8 | O=C(C=Cc1c(F)c(F)c(F)c(F)c1F)NC(Cc1ccc(OCc2c(Cl)cccc2Cl)cc1)C(=O)NC1CN2CCC1CC2 [Analog M-1544, F5c-OC2Y-(R)-Aqu] | 6 | 28%
9 | O=C(C=Cc1c(F)c(F)c(F)c(F)c1F)NC(Cc1ccc(OCc2c(Cl)cccc2Cl)cc1)C(=O)NC1CN2CCC1CC2 [Analog M-1546, F5c-OC2Y-(S)-Aqu] | 1.8 | 29%
10 | O=C(C=Cc1c(F)c(F)c(F)c(F)c1F)NC(Cc1ccc(OCc2c(Cl)cccc2Cl)cc1)C(=O)NC1CCN(Cc2ccccc2)CC1 (stereo not shown) [Analog M-1552, F5c-OC2Y-Abzp] | 13 | 52%
11 | O=C(C=Cc1c(F)c(F)c(F)c(F)c1F)NC(Cc1ccc(OCc2c(Cl)cccc2Cl)cc1)C(=O)N1CCN(c2ncccn2)CC1 (stereo not shown) [Analog M-1554, F5c-OC2Y-Pmpz] | 6.8 | Stim.
12 | CC1CN(C(=O)C(Cc2ccc(OCc3c(Cl)cccc3Cl)cc2)NC(=O)C=Cc2c(F)c(F)c(F)c(F)c2F)CC(C)N1Cc1ccccc1 (stereo not shown) [Analog M-1556, F5c-OC2Y-cDmbp] | 18 | 59%
13 | COc1ccc2c(c1)c(CC(=O)N[C@@H](Cc1ccc(OCc3c(Cl)cccc3Cl)cc1)C(=O)NC1CCN(Cc3ccccc3)CC1)c(C)n2C(=O)c1ccc(Cl)cc1 [Analog M-1558, Indo-OC2Y-Abzp] | 9.6 | Stim.
14 | COc1ccc2c(c1)c(CC(=O)NC(Cc1ccc(OCc3c(Cl)cccc3Cl)cc1)C(=O)N1CC(C)N(Cc3ccccc3)C(C)C1)c(C)n2C(=O)c1ccc(Cl)cc1 (stereo not shown) [Analog M-1560, Indo-OC2Y-cDmbp] | > 60 | Stim.
15 | COc1ccc2c(c1)c(CC(=O)N[C@@H](Cc1ccc(OCc3c(Cl)cccc3Cl)cc1)C(=O)N1CCN(c3ncccn3)CC1)c(C)n2C(=O)c1ccc(Cl)cc1 [Analog M-1562, Indo-OC2Y-Pmpz] | > 60 | 2%
16 | COc1ccc2c(c1)c(CC(=O)N[C@@H](Cc1ccc(OCc3c(Cl)cccc3Cl)cc1)C(=O)N1CCN(C/C=C/c3ccccc3)CC1)c(C)n2C(=O)c1ccc(Cl)cc1 [Analog M-1566, Indo-OC2Y-tCip] | > 60 | 57%
17 | Cc1onc(-c2ccccc2Cl)c1C(=O)N[C@@H](Cc1ccc(OCc2c(Cl)cccc2Cl)cc1)C(=O)NC1CC(C)(C)NC(C)(C)C1 [Analog M-1568, Cmioc-OC2Y-Atmp] | 3.6 | Stim.
18 | CC1(C)CC(NC(=O)C(Cc2ccc(OCc3c(Cl)cccc3Cl)cc2)NC(=O)C=CC(=O)c2ccccc2)CC(C)(C)N1 (stereo not shown) [Analog M-1576, Bzac-OC2Y-Atmp] | 6.2 | 57%
19 | CN1CCN(CCCNC(=O)[C@H](Cc2ccc(OCc3c(Cl)cccc3Cl)cc2)NC(=O)/C=C/c2c(F)c(F)c(F)c(F)c2F)CC1 [Analog M-1582, F5c-OC2Y-Amp] | 6.7 | 60%

Row | SMILES | IC50 (SCLC strain SHP-77) [µM] | PC3 In vivo % inhib. (PC3 PC cells)
20 | COc1ccc2c(c1)c(CC(=O)N[C@@H](Cc1ccc(OCc3c(Cl)cccc3Cl)cc1)C(=O)NCCCN1CCN(C)CC1)c(C)n2C(=O)c1ccc(Cl)cc1 [Analog M-1584, Indo-OC2Y-Amp] | 1.5 | 32%
21 | COc1ccc2c(c1)c(CC(=O)N[C@H](Cc1ccc(OCc3c(Cl)cccc3Cl)cc1)C(=O)NC1CC(C)(C)NC(C)(C)C1)c(C)n2C(=O)c1ccc(Cl)cc1 [Analog M-1586, Indo-D-OC2Y-Atmp] | 1.7 | 38%
22 | COc1ccc2c(c1)c(CC(=O)NC(Cc1ccc(OCc3c(Cl)cccc3Cl)cc1)C(=O)NC1CN3CCC1CC3)c(C)n2C(=O)c1ccc(Cl)cc1 [Analog M-1588, Indo-OC2Y-(R)-Aqu] | 3.9 | 8%
23 | COc1ccc2c(c1)c(CC(=O)NC(Cc1ccc(OCc3c(Cl)cccc3Cl)cc1)C(=O)NC1CN3CCC1CC3)c(C)n2C(=O)c1ccc(Cl)cc1 [Analog M-1590, Indo-OC2Y-(S)-Aqu] | 4.1 | Stim.
24 | CC1(C)CC(NC(=O)[C@H](Cc2ccc(OCc3c(Cl)cccc3Cl)cc2)NC(=O)c2ccc(N)cc2O)CC(C)(C)N1 [Analog M-1592, Pas-OC2Y-Atmp] | 7.2 | Stim.
25 | CC1(C)CC(NC(=O)[C@H](Cc2ccc(OCc3c(Cl)cccc3Cl)cc2)NCc2c(F)c(F)c(F)c(F)c2F)CC(C)(C)N1 [Analog M-1594, F5b-OC2Y-Atmp] | 3.1 | 20%
26 | CC1(C)CC(NC(=O)[C@H](Cc2ccc(OCc3c(Cl)cccc3Cl)cc2)NCC=C(c2ccccc2)c2ccccc2)CC(C)(C)N1 [Analog M-1600, Pcnl-OC2Y-Atmp] | 4.1 | 44%
27 | CC1(C)CC(NC(=O)[C@H](Cc2ccc(OCc3c(Cl)cccc3Cl)cc2)NC(=O)c2c3ccccc3nc3ccccc23)CC(C)(C)N1 [Analog M-1602, Acrc-OC2Y-Atmp] | 1.6 | Stim.
28 | CC1(C)CC(NC(=O)[C@H](Cc2ccc(OCc3c(Cl)cccc3Cl)cc2)NCc2cnc3ccccc3c2)CC(C)(C)N1 [Analog M-1604, 3Qum-OC2Y-Atmp] | 7.4 | Stim.
29 | CC1(C)CC(NC(=O)[C@H](Cc2ccc(OC(=O)OCc3ccccc3Br)cc2)NC(=O)/C=C/c2c(F)c(F)c(F)c(F)c2F)CC(C)(C)N1 [Analog M-1608, F5c-ObrZY-Atmp] | 10 | 29%
30 | Cc1ncc(CO)c(CN[C@@H](Cc2ccc(OCc3c(Cl)cccc3Cl)cc2)C(=O)NC2CC(C)(C)NC(C)(C)C2)c1O [Analog M-1610, B6-OC2Y-Atmp] | > 60 | Stim.
31 | Cc1ncc(COP(=O)(O)O)c(CN[C@@H](Cc2ccc(OCc3c(Cl)cccc3Cl)cc2)C(=O)NC2CC(C)(C)NC(C)(C)C2)c1O [Analog M-1612, B6P-OC2Y-Atmp] | > 60 | Stim.
32 | C=CCN1C(C)CN(C(=O)C(Cc2ccc(OCc3c(Cl)cccc3Cl)cc2)NC(=O)C=Cc2c(F)c(F)c(F)c(F)c2F)CC1C (stereo not shown) [Analog M-1614, F5c-OC2Y-cDmap] | 2 | 54%
33 | CC1(C)CC(NC(=O)[C@H](Cc2ccc(OCc3c(Cl)cccc3Cl)cc2)NC(=O)CCP(=O)(O)O)CC(C)(C)N1 [Analog M-1616, 3Php-OC2Y-Atmp] | > 60 | 18%
34 | CC1(C)CC(NC(=O)[C@H](Cc2ccc(OCc3c(Cl)cccc3Cl)cc2)NC(=O)c2ccc3c(c2)C(=O)c2ccccc2C3=O)CC(C)(C)N1 [Analog M-1618, Aq2c-OC2Y-Atmp] | 2.2 | 10%
35 | Cc1ncc(CO)c(CNC(=O)[C@H](Cc2ccc(OCc3c(Cl)cccc3Cl)cc2)NC(=O)/C=C/c2c(F)c(F)c(F)c(F)c2F)c1O [Analog M-1622, F5c-OC2Y-Pxa] | 22 | 58%
36 | O=C(/C=C/c1c(F)c(F)c(F)c(F)c1F)N[C@@H](Cc1ccc(OCc2c(Cl)cccc2Cl)cc1)C(=O)NCc1nc2ccccc2[nH]1 [Analog M-1624, F5c-OC2Y-Ambi] | 50 | 68%
37 | CC1(C)CC(NC(=O)C(Cc2ccc(OCc3c(Cl)cccc3Cl)cc2)NC(=O)C2CSC(=O)N2)CC(C)(C)N1 (stereo not shown) [Analog M-1630, Otac-OC2Y-Atmp] | 60 | 71%
38 | O=C(/C=C/c1c(F)c(F)c(F)c(F)c1F)N[C@@H](Cc1ccc(OCc2c(Cl)cccc2Cl)cc1)C(=O)NCCN1CCOCC1 [Analog M-1632, F5c-OC2Y-Aem] | 7.8 | 32%
